Consider 14 compounds from US5389663A, “1-(1h-1,2,4-triazole-yl)-2-propanol compounds” (Takeda Chemical Industries, Ltd., priority 1991, dated 1995).

Like-named read-outs stand apart in the source and are kept apart here.

The subject of assay [1] is Microsporum gypseum IFO 6075. The assay is described as follows: Paper disc agar diffusion, growth inhibition zone, Microsporum gypseum IFO 6075. It counts as cell-based. To be noted: Nannizzia gypsea, IFO6075, 48 h; Table 4; medium B (Sabouraud agar), 28° C., two days, 1000 μ/ml, 8 mm disc; read-out: Diameter of growth inhibition zone. On the procedure:
(§1) Evaluation of the antifungal activities of the compound of formula (I) was conducted by the following method: a sheet of filter paper disc (manufactured by Toyo Seisakusho, 8 mm in diameter) soaked in a […] solution of a compound of formula (I) in methanol was placed on an agar plate containing various fungi, which was incubated at 28° C. for two days, and the diameter of the growth inhibition zone around the filter paper disc was measured. The following culture media were used: A: yeast nitrogen base agar medium (pH 7.0) B: Sabouraud agar medium

Assay [2] deals with Candida albicans IFO 0583. The assay is described as follows: Paper disc agar diffusion, growth inhibition zone, Candida albicans IFO 0583. The assay is classed as cell-based. To be noted: 28° C., 8 mm disc. On the procedure:
as §1
cpd. No. (Medium A, 28° C., two-day culture)
Background: Agar diffusion results depend on both activity and mobility in agar.

The test system of another assay is Candida albicans. Kind of assay: Protective effect against Candida albicans infection in mice. The assay is classed as in vivo, Crj:CDF1 mice. To be noted: 168 h, minimum lethal dose of Candida albicans iv, drug once immediately after infection, survival 7 days after infection. The text has this:
Test Method: Five-week old Crj:CDF1 mice were inoculated with the minimum lethal dose of Candida albicans intravenously. The test drug was given once immediately after infection. The effectiveness of the drug was expressed in ED50 values calculated by the Reed and Muench method from the survival rate 7 days after infection.

The subject of another assay is Candida utilis IFO 0619. Kind of assay: Paper disc agar diffusion, growth inhibition zone, Candida utilis IFO 0619. It counts as cell-based. The settings on record: Williopsis jadinii, IFO0619, 48 h; Table 4; medium A, 28° C., two days, 1000 μ/ml, 8 mm disc; read-out: Diameter of growth inhibition zone. On the procedure: as §1
Assay [3] relates to Cryptococcus neoformans IFO 0410. The assay is described as follows: Paper disc agar diffusion, growth inhibition zone, Cryptococcus neoformans IFO 0410. The settings on record: IFO0410, 48 h, Table 4, medium A, 28° C., two days, 1000 μ/ml, 8 mm disc, read-out: Diameter of growth inhibition zone. It counts as cell-based. The method, then:
as §1

The test system of assay [4] is Aspergillus niger IFO 4066. The assay is described as follows: Paper disc agar diffusion, growth inhibition zone, Aspergillus niger IFO 4066. The assay is classed as cell-based. To be noted: IFO4066, 48 h, Table 4, medium A, 28° C., two days, 1000 μ/ml, 8 mm disc, read-out: Diameter of growth inhibition zone. On the procedure:
as §1

In assay [5] the test system is Aspergillus fumigatus IFO 6344. The assay is described as follows: Paper disc agar diffusion, growth inhibition zone, Aspergillus fumigatus IFO 6344. It counts as cell-based. The settings on record: IFO6344, 48 h, Table 4, medium A, 28° C., two days, 1000 μ/ml, 8 mm disc, read-out: Diameter of growth inhibition zone. The method, then: as §1
Assay [6] concerns Trichophyton mentagrophytes IFO 7522. Kind of assay: Paper disc agar diffusion, growth inhibition zone, Trichophyton mentagrophytes IFO 7522. To be noted: IFO7522, 48 h, Table 4, medium B (Sabouraud agar), 28° C., two days, 1000 μ/ml, 8 mm disc, read-out: Diameter of growth inhibition zone. It counts as cell-based. On the procedure: as §1
The test system of assay [7] is Trichophyton rubrum IFO 6467. Kind of assay: Paper disc agar diffusion, growth inhibition zone, Trichophyton rubrum IFO 6467. It counts as cell-based. The settings on record: IFO6467, 48 h, Table 4, medium B (Sabouraud agar), 28° C., two days, 1000 μ/ml, 8 mm disc, read-out: Diameter of growth inhibition zone. On the procedure:
as §1

Setting [8] is: 48 h, pH 7, Table 4, medium A (yeast nitrogen base agar, pH 7.0), two days, 1000 μ/ml in methanol, read-out: Diameter of growth inhibition zone.
Setting [9] is: Candida albicans, IFO0583, 48 h, Table 5, Medium A, two-day culture, 1000 μ/ml, read-out: Diameter of growth-inhibition zone.

The zone of inhibition is the extent of the growth-free halo in a diffusion test. One may read the ED50 as the dose at which the effect has come halfway, by size or by number of responders. In the case of `C[C@H]([C@](O)(Cn1cncn1)c1ccc(F)cc1F)S(=O)(=O)N(C)C` [Compound 2, N,N-dimethyl-[(2R,3R)-3-(2,4-difluorophenyl)-3-hydroxy-4-(1H-1,2,4-triazol-1-yl) -2-butane]sulfonamide], the zone of inhibition at 1000 µg/mL in assay [1] stood at 22 mm; in assay [2] (setting [8]) it was 25 mm; in the assay on Candida utilis IFO 0619, 36 mm; in assay [3], 38 mm; in assay [4], 25 mm; in assay [5], 25 mm. For the same compound, the zone of inhibition at 1000 µg/mL was determined as 25 mm in assay [6] and 35 mm in assay [7]. Further, the ED50 with Candida albicans (po) and with Candida albicans (sc) was 5 mg/kg throughout.

On to `C[C@@H](SNc1ccc(Br)cc1)[C@](O)(Cn1cncn1)c1ccc(F)cc1F` [Compound 21, N-(4-bromophenyl)-[(2R,3R)-3-(2,4-difluorophenyl)-3-hydroxy-4-(1H-1,2,4-triazol-1-yl)-2butane]sulfenamide], for which the zone of inhibition at 1000 µg/mL was 24 mm in assay [1]; 43 mm in assay [2] (setting [8]); 40 mm with Candida utilis IFO 0619; 30 mm in [3]; 20 mm in [4]; 30 mm in assay [5]. The zone of inhibition at 1000 µg/mL in assay [6] stood at 25 mm; in [7], 45 mm.

Regarding `C[C@H]([C@](O)(Cn1cncn1)c1ccc(F)cc1F)S(=O)(=O)N1CCN(c2ccccc2)CC1` [Compound 23], the zone of inhibition at 1000 µg/mL in [1] came to 30 mm; in assay [2] (setting [8]) it was 45 mm; in the assay on Candida utilis IFO 0619, 45 mm; in assay [3], 40 mm; in assay [4], 20 mm; in assay [5] it was 22 mm. Also, the zone of inhibition at 1000 µg/mL in [6] was 25 mm; in assay [7] it was 40 mm. It took a dose of 7.1 mg/kg to reach the 50% effect level with Candida albicans (po) (ED50).

For `C[C@H]([C@](O)(Cn1cncn1)c1ccc(F)cc1F)S(=O)(=O)NC(c1ccccc1)c1ccccc1` [Compound 59, N-diphenylmethyl-[(2R,3R)-3-(2,4-difluorophenyl)-3-hydroxy-4-(1H-1,2,4-triazol-1-yl)-2-butane]sulfonamide], in assay [2] (setting [9]), the zone of inhibition at 1000 µg/mL was 30 mm. In addition, the ED50 in the assay on Candida albicans (po) was 11.3 mg/kg.

Turning to `C[C@H]([C@](O)(Cn1cncn1)c1ccc(F)cc1F)S(=O)(=O)N(C)Cc1cccnc1` [Compound 64, N-(3-pyridylmethyl)-N-methyl-[(2R,3R)-3-(2,4-difluorophenyl)-3-hydroxy-4-(1H-1,2,4-triazol-1-yl)-2-butane]sulfonamide], the zone of inhibition at 1000 µg/mL in [2] (setting [9]) stood at 40 mm. In the assay with Candida albicans (po), this compound gave an ED50 of 2.8 mg/kg.

Consider `C[C@H]([C@](O)(Cn1cncn1)c1ccc(F)cc1F)S(N)(=O)=O` [Compound 65, (2R,3R)-3-(2,4-difluorophenyl)-3-hydroxy-4-(1H-1,2,4-triazol-1-yl)-2-butanesulfonamide], for which the zone of inhibition at 1000 µg/mL in assay [2] (setting [9]) amounted to 30 mm. Also, in the assay with Candida albicans (po), the ED50 amounted to 11.3 mg/kg.

Consider `C[C@H]([C@](O)(Cn1cncn1)c1ccc(F)cc1F)S(=O)(=O)N1CCN(c2ccc(OCC(F)(F)F)cc2)CC1` [Compound 70, 4-[(2R,3R)-3-(2,4-difluorophenyl)-3-hydroxy-4-(1H-1,2,4-triazol-1-yl)-2-butanesulfonyl]-1-[4-(2,2,2-trifluoroethoxy)phenyl]piperazine], for which the zone of inhibition at 1000 µg/mL in assay [2] (setting [9]) worked out at 42 mm. Also, the ED50 in the assay with Candida albicans (po) came to 8 mg/kg.

In the case of `C[C@H]([C@](O)(Cn1cncn1)c1ccc(F)cc1F)S(=O)(=O)N1CCN(c2ccc(F)cc2)CC1` [Compound 71, 4-[(2R,3R)-3-(2,4-difluorophenyl)-3-hydroxy-4-(1H-1,2,4-triazol-1-yl)-2-butanesulfonyl]-1(4-fluorophenyl)piperazine], the zone of inhibition at 1000 µg/mL in assay [2] (setting [9]) is 47 mm. Besides, in the assay on Candida albicans (po), the ED50 turned out to be 8 mg/kg.

With `C[C@H]([C@](O)(Cn1cncn1)c1ccc(F)cc1F)S(=O)(=O)N1CCN(c2ccc(C(F)(F)F)cc2)CC1` [Compound 73, 4-[(2R,3R)-3-(2,4-difluorophenyl)-3-hydroxy-4-(1H-1,2,4-triazol-1-yl)-2-butanesulfonyl]-1-(4-trifluoromethylphenyl)piperazine], in assay [2] (setting [9]), the zone of inhibition at 1000 µg/mL came out at 32 mm. In the assay with Candida albicans (po), the 50% effect level (ED50) was put at a dose of 6.4 mg/kg.

Turning to `C[C@H]([C@](O)(Cn1cncn1)c1ccc(F)cc1F)S(=O)(=O)N(C)Cc1nccn1C` [Compound 75], the zone of inhibition at 1000 µg/mL in assay [2] (setting [9]) was 34 mm. For the same compound, in the assay with Candida albicans (po), the 50% effect level (ED50) was put at a dose of 8 mg/kg.

On to `C[C@H]([C@](O)(Cn1cncn1)c1ccc(F)cc1F)S(=O)(=O)N(C)Cc1ccncc1` [Compound 76], for which, in assay [2] (setting [9]), the zone of inhibition at 1000 µg/mL came to 40 mm. The compound further returned an ED50 in the assay on Candida albicans (po) of 8 mg/kg.

Regarding `C[C@H]([C@](O)(Cn1cncn1)c1ccc(F)cc1F)S(=O)(=O)N(C)Cc1nccs1` [Compound 78], in [2] (setting [9]), the zone of inhibition at 1000 µg/mL is 40 mm. Moreover, the ED50 in the assay on Candida albicans (po) came out at 8 mg/kg.

For the compound `C[C@H]([C@](O)(Cn1ccnc1)c1ccc(F)cc1F)S(=O)(=O)N(C)Cc1ccc(C(F)(F)F)cc1` [Compound 86, N-methyl-N-(4-trifluoromethylbenzyl)-[(2R,3R)-3-(2,4-difluorophenyl)-3-hydroxy-4-(1-imidazolyl)-2-butane]sulfonamide], the zone of inhibition at 1000 µg/mL in [2] (setting [9]) stood at 35 mm. The 50% effect level in the assay on Candida albicans (po) (ED50) was put at a dose of 8 mg/kg.

In the case of `C[C@H]([C@](O)(Cn1cncn1)c1ccc(F)cc1F)S(=O)(=O)N1CCN(c2nc(Cl)ncc2F)CC1` [Compound 91, 1-[(2R,3R)-3-(2,4-difluorophenyl)-3-hydroxy-4-(1H-1,2,4-triazol-1-yl)-2-butanesulfonyl]-4-(2-chloro-5-fluoropyrimidin-4-yl)piperazine], the zone of inhibition at 1000 µg/mL in [2] (setting [9]) was 50 mm. This compound returned an ED50 with Candida albicans (po) of 11.3 mg/kg.
